Results taken from US20080199451A1, “Composition for the Treatment and/or Prevention of Attacks by Biological Agents” (priority 2005, published 2008).

Tests used:
[1] = system: European red mite Panonychus ulmi; assay: Ovicide activity on European red mite eggs on beet leaf discs (Example 6); format: in vivo; conditions: after 8 days; leaf discs immersed five seconds; oil 1.5%, meal 2 g l^−1, hexythiazox 50 mg p.a. l^−1
Description: Beet leaf discs measuring 60 mm were placed in a 90 mm diameter Petri dish and kept in a climatic cell at 24° C., 75% R.H. with 17 hours of light. Fifteen female mites were placed on each leaf disc to lay their eggs. The females were removed after 24 hours and the eggs were counted. Each group consisted of three leaf discs. The treatments were carried out with the “deep test” method: the leaf discs were immersed for five seconds in a suspension consisting of 1.5% vegetable oil, 1.5% vegetable oil+2 g l^−1 carinata meal, 1.5% UF mineral oil+2 g l^−1 carinata meal or the acaricide hexythiazox Matacar (Sipcam) at a dose of 50 mg p.a. I^−1. The control was immersed in water. The ovicide activity was assessed starting on the fourth day and every 2 days up to the eighth day, calculating the percentage of hatched eggs estimated indirectly by counting the live offspring.

Cacopsylla pyri = assay: Field test on pear lice (Example 11); format: in vivo
Description: Pear plants with a high level of lice infestation were treated on May 6 and 20 2006. […]

Row | Compound | hatched eggs [1] | surviving offspring (Cacopsylla pyri; ten days after the first treatment) | offspring or nymphs found (Cacopsylla pyri; third observation (30 days after the second treatment))
1 | C[C@@H]1[C@@H](c2ccc(Cl)cc2)SC(=O)N1C(=O)NC1CCCCC1 [commercial acaricide, hexythiazox] | 23.4% |  | 
2 | Abamectin |  | 22 | no offspring or nymphs were found
